Measured values reported in ChEMBL document CHEMBL3301472, “MMV Malaria Box HIV and cytotoxicity screening”.

Assays:
Format in all cases: toxicity, cell-based
[1] = MMV: MTT Cytotoxicity Assay Day 7 pi of Assay #11 (NO washout), U87-CD4-CXCR4 cells, % cell death @ 5mM compound; conditions: human, u87-cd4-cxcr4, 5000 µM
[2] = MMV: MTT Cytotoxicity Assay Day 3 pi, U87-CD4-CCR5 cells, % cell death @ 5mM compound; conditions: human, u87-cd4-ccr5, 5000 µM
[3] = MMV: MTT Cytotoxicity Assay Day 3 pi, U87-CD4-CXCR4 cells, % cell death @ 5mM compound; conditions: human, u87-cd4-cxcr4, 5000 µM
[4] = MMV: MTT Cytotoxicity Assay Day 7 pi of Assay #7 (compound washed out Day 1 pi), U87-CD4-CXCR4 cells, % cell death @ 5mM compound; conditions: human, u87-cd4-cxcr4, 5000 µM
[5] = MMV: MTT Cytotoxicity Assay Day 7 pi of Assay #6 (compound washed out Day 1 pi), U87-CD4-CCR5 cells, % cell death @ 5mM compound; conditions: human, u87-cd4-ccr5, 5000 µM
[6] = MMV: MTT Cytotoxicity Assay Day 7 pi of Assay #10 (NO washout), U87-CD4-CCR5 cells, % cell death @ 5mM compound; conditions: human, u87-cd4-ccr5, 5000 µM

Compound	% Cell Death [1]	% Cell Death [2]	% Cell Death [3]	% Cell Death [4]	% Cell Death [5]	% Cell Death [6]
CCN1CCCC1CNc1[nH]cnc2c3cc(Cl)ccc3nc1-2 (stereo not given)	14	45	23	-7	26	40
COc1ccc(-c2c(C)nn3c(N)c(C#N)cnc23)cc1OC	93	83	98	89	93	124
C[n+]1c2ccccc2nc2ccc(NCCO)cc21	16	-33	11	-30	29	49
Cc1ccc(-c2cc3c(SCC(=O)Nc4cc(C(F)(F)F)ccc4Cl)nccn3n2)cc1	2	18	35	-26	12	24
CCN(CC)CCNc1ncnc2c1[nH]c1ccc(Cl)cc12	-1	15	30	-31	1	5
CCOC(=O)c1cnc2ccc(CC)cc2c1O	42	1	22	-25	13	21
CCN(CC)CCNc1ccnc2cc(Cl)ccc12	-13	4	36	-5	21	17
Cc1cc(Nc2ccc3ccccc3c2)n2ncnc2n1	-43	39	38	-16	12	-3
COc1ccc(-n2ccnc2SCC(=O)Nc2cc(C)ccc2C)c(OC)c1	78	18	54	-16	32	71
Oc1ccccc1CN1CCC2(CCCN(Cc3ccccc3F)C2)C1 (stereo not given)	39	-2	15	1	36	44
COc1cccc(O)c1CN1CCC2(CCCN(Cc3ccc(F)cc3)C2)C1 (stereo not given)	6	-63	-7	21	-1	7
FC(F)(F)c1ccc(Nc2nnnc3ccccc23)cc1	90	67	28	-10	44	121
COc1ccc(CCN2CCC(CN(C)Cc3cnn(-c4ccccc4)c3)CC2)cc1	93	33	53	16	68	110
O=C(NC(c1ccccc1)c1ccc2cccnc2c1O)c1ccccc1 (stereo not given)	39	-19	12	-26	43	122
O=C(NC1CCCC1)c1ccc(N2CCC(NCc3cccc(C(F)(F)F)c3)CC2)cc1	6	4	35	7	-1	-4
CCOc1cc(Br)c(C(C)NC(=O)c2cccc(OC)c2)cc1OCC (stereo not given)	-7	-32	-7	11	13	28
CC(C)=CCN1CCC(C(=O)Nc2ccc(-c3nc4ccccc4[nH]3)cc2)CC1	-26	10	22	4	6	11
CCOc1cc(Cl)c(C(C)NC(=O)c2cccc(OC)c2)cc1OCC (stereo not given)	28	-1	37	16	10	24
COc1ccc(CNC2CCN(c3ccc(NC(=O)c4cccc(Cl)c4)cc3)CC2)cc1OC	-37	-8	-2	-21	28	11
COc1ccc(NC(=O)C2c3ccccc3C(=O)N(CC(C)C)C2c2cccs2)cc1Cl (stereo not given)	-10	13	22	-21	5	-2

Compound	% Cell Death [1]	% Cell Death [2]	% Cell Death [3]	% Cell Death [4]	% Cell Death [5]	% Cell Death [6]
COc1ccc2c(c1)OC(O)(C(F)(F)C(F)(F)F)CC2=O (stereo not given)	88	42	47	4	37	62
FC(F)(F)c1cccc(CNC2CCN(CCc3ccccc3)CC2)c1	24	-16	31	-15	30	-16
O=C(Nc1ccc(Cl)cc1)N1CCN(c2ccc3nncn3n2)CC1	98	108	22	87	83	92
O=C(CSc1ccc2nnc(-c3cccc(F)c3)n2n1)Nc1ccc2c(c1)OCO2	100	82	54	48	63	94
CCCCNCC(O)(c1ccc(Cl)cc1)c1ccc(Cl)cc1	27	16	29	-18	23	11
COc1ccccc1CNC(=O)CCn1c(=O)[nH]c2ccsc2c1=O	-15	34	10	-19	-12	-16
Cc1ccc(CN2CCC(C(=O)Nc3ccc(-c4cc5ccccc5[nH]4)cc3)CC2)o1	22	33	20	20	31	65
O=C(Nc1ccc(Cl)cc1C(=O)Nc1ccncc1)c1ccc(Cl)cc1Cl	87	0	21	75	50	15
CCc1ccc(Nc2cc(C)c3ccc(O)cc3n2)cc1.Cl	102	105	101	95	101	130
COc1ccc(C2N(C)c3ccccc3N2C)cc1	30	-7	-15	-14	16	3
O=C(Nc1ccccc1O)c1ccc(-c2ccc(Cl)cc2Cl)o1	64	-37	-23	66	34	11
O=C(Nc1ccc(F)c(Cl)c1)Nc1ccc(Cl)c(Cl)c1	-12	-19	4	-9	-6	22
CCOc1ccc(-c2nc(NC(=O)c3cccc(S(C)(=O)=O)c3)sc2C)cc1	29	5	-6	-38	0	2
CCOC(=O)c1ccc2[nH]c(-c3ccccc3)cc(=O)c2c1	99	104	99	96	98	129
COc1ccccc1N1CCN(C(CNS(=O)(=O)c2ccc(Cl)cc2)c2cccnc2)CC1 (stereo not given)	105	109	94	81	83	130
CCN(CC)CCCNc1nc(-c2ccc(Cl)cc2)nc2ccccc12	-10	-18	13	18	13	18
CN1c2ccccc2N(C)C1c1ccc2c(c1)OCO2	-2	-7	3	16	10	1
Cc1ccc(Nc2nc(NCCO)c3ccccc3n2)cc1C	12	-23	28	-22	3	36
O=C(NCC1Cc2cccc(-c3ccncc3)c2O1)c1csc2c1CCCC2 (stereo not given)	60	4	2	-22	7	17
C=C(C)CCC(C)N1CCC(N2CCC(C(=O)NCCc3ccccc3)CC2)CC1 (stereo not given)	-11	-11	3	-27	23	11
